Data: PMC8199067, “Urolithin and Reduced Urolithin Derivatives as Potent Inhibitors of Tyrosinase and Melanogenesis: Importance of the 4-Substituted Resorcinol Moiety” (International Journal of Molecular Sciences, 2021)
Where “and” joins values, the source holds several entries; their conditions need not be identical. Equal values may be shown once. Entries after “also recorded” stand apart in the source; their conditions may differ. Read-outs that look alike come from different tables or passages of the source. Each block holds one molecule with its values, some of them ahead of it.

What was measured:
[1] = system: B16F10 melanoma cells; assay: Melanin content assay in α-MSH plus IBMX-stimulated B16F10 melanoma cells; format: cell-based, murine; settings: 48 h
Experimental: Melanin contents in B16F10 cells were assessed by measuring optical densities spectrophotometrically. […] After washing cells with PBS two or three times, they were incubated for 1 h in 100 µL of 1N NaOH solution at 60 °C. […] All experiments were independently repeated three times.

[2] = biological target: T1, mushroom tyrosinase (Agaricus bisporus, UniProt C7FF04); assay: Mushroom tyrosinase inhibitory assay (L-tyrosine substrate); format: biochemical; settings: for Tyrosinase Inhibition (%) / inhibition at 50 µM: 50 μM, L-tyrosine as substrate, mean ± SEM, NI means no inhibition
Experimental: The experiment was repeated three times. Mushroom tyrosinase inhibitions % were calculated using:% Inhibition = [1 − (A/B)] × 100(1) where A is the absorbance of the test compound and B is the absorbance of the blank.
Log-linear curves were plotted, and their equations were determined.
Target sequence in this assay (C7FF04 1-392 limits assumed): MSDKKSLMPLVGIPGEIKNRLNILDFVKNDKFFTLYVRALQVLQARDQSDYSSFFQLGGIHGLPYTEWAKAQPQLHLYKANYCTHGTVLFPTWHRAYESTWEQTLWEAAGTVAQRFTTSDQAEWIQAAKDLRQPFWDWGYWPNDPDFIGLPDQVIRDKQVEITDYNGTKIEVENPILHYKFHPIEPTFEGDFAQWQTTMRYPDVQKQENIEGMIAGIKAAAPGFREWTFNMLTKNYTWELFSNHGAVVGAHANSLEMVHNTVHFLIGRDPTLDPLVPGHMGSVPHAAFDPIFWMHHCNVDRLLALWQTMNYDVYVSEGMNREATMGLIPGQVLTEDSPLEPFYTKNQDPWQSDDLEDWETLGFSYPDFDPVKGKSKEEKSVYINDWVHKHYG

[3] = biological target: T1, mushroom tyrosinase; assay: Kinetic analysis of mushroom tyrosinase inhibition, Lineweaver–Burk plots; format: biochemical
Experimental: Briefly, 170 μL of a mixture of an aqueous solution of L-[…].0, 2.0, 4.0, or 8.0 mM and 50 mM of potassium phosphate (pH 6.5) was added to a 96-well plate. […] Lineweaver-Burk plots were used to determine Vmax (maximal reaction rates) and KM (Michaelis-Menten constants) of mushroom tyrosinase activities.
Target sequence in this assay (C7FF04 1-392): as the sequence (C7FF04 1-392 limits assumed) above

[4] = biological target: T2, tyrosinase in B16F10 melanoma cells (Mus musculus, UniProt P11344); assay: Cellular tyrosinase activity in α-MSH plus IBMX-stimulated B16F10 melanoma cells; settings: 48 h
T2 sequence (P11344 19-533): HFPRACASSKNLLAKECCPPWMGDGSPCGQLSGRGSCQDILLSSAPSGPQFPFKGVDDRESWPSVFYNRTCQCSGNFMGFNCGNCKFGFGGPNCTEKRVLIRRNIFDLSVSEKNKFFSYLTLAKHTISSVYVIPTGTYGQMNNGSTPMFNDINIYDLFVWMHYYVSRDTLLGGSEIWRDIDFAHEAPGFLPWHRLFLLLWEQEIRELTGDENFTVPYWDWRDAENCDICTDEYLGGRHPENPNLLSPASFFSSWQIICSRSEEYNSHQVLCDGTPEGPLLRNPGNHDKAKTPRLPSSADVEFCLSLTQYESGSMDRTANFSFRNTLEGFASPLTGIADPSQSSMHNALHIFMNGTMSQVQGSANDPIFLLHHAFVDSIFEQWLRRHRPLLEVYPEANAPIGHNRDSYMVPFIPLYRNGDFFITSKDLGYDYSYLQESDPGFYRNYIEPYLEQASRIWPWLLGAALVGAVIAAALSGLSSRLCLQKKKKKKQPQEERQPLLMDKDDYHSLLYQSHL
Experimental: Cells were washed with PBS two or three times, lysed with a 100 μL of buffer (90 μL of PBS (50 mM), 5 μL of PMSF (0.1 mM), and 5 μL of 1% Triton X-100), frozen at −80 °C for 30 min, and centrifuged at 12,000 rpm for 30 min at 4 °C. Lysate supernatants (80 µL) were mixed with 20 µL of L-dopa (2 mg/mL) in a 96-well plate and incubated at 37 °C for 15 min. […] All the experiments were independently repeated three times.

[5] = system: B16F10 melanoma cells; assay: EZ-cytox cell viability assay; format: cell-based, murine; settings: 1–20 µM, 24 h
Experimental: EZ-cytox assays were performed to examine whether these compounds are cytotoxic.
B16F10 murine melanoma cells were purchased from the American Type Culture Collection (ATCC, Manassas, VA, USA). Cells were cultured in Dulbecco’s modified Eagle’s medium (10% fetal bovine serum (FBS), and 1% streptomycin) obtained from Gibco/Thermo Fisher Scientific (Carlsbad, CA, USA) at 37 °C in a 5% CO2 environment. These cultured cells were used for cell viability, melanin content, and cellular tyrosinase inhibitory assays.
EZ-cytox assays were performed on 1c, 1h, and 2a, according to previously described. B16F10 cells were seeded in a 96-well plate at a density of 5 × 10^4 cells/well and incubated at 37 °C in a humidified 5% CO2 atmosphere overnight. Cells were then treated with different concentrations of 1c, 1h, or 2a (0, 1, 2, 5, 10, or 20 µM) and incubated for 24 h under the same conditions. EZ-cytox solution (10 µL) was then added and the plate was incubated for 3 h at 37 °C in a humidified 5% CO2 atmosphere. Optical densities of wells were measured at 450 nm using an ELISA reader. All experiments were independently repeated three times.

inhibition at 50 µM [2]: < 0%
SMILES: COc1ccc(-c2ccccc2CO)c(O)c1 [Compound 2b, 2′-(Hydroxymethyl)-4-methoxy-[1,1′-biphenyl]-2-ol]

Tyrosinase Inhibition (%) [2]: 19.78 ± 15.84% | inhibition at 50 µM [2]: 20%
SMILES: OCc1ccccc1-c1c(O)cc(O)cc1O [Compound 2c, 2′-(Hydroxymethyl)-[1,1′-biphenyl]-2,4,6-triol]

inhibition at 50 µM [2]: < 0%
SMILES: COc1cc(O)c(-c2ccccc2CO)c(OC)c1 [Compound 2d, 2′-(Hydroxymethyl)-4,6-dimethoxy-[1,1′-biphenyl]-2-ol]

inhibition at 50 µM [2]: < 0%
SMILES: COc1ccc(-c2c(O)cc(OC)cc2OC)c(CO)c1 [Compound 2i, 2′-(Hydroxymethyl)-4,4′,6-trimethoxy-[1,1′-biphenyl]-2-ol]

The next lines start with the molecule.

SMILES: OCc1ccccc1-c1ccc(O)cc1O [Compound 2a, 2′-(Hydroxymethyl)-[1,1′-biphenyl]-2,4-diol]
Melanin content ([1]; 5 µM, kojic acid 20 µM as comparator): more potently than kojic acid | Melanin content ([1]; 20 μM, kojic acid 20 µM as comparator): more so than kojic acid | Melanin content ([1]; 5, 10, 20 μM): more strongly than KA; also recorded: reduced melanin levels significantly and concentration-dependently; also recorded: effectively and dose-dependently | Inhibition (%), single determinations ([2]; 1.56 μM): 0.27% and 0.72% and 1.06% | inhibition at 1.56 µM ([2]; 1.56 μM, read-out: Average of Inhibition (%)): 0.68 ± 0.23% | inhibition at 3.13 µM ([2]; 3.13 μM, read-out: Average of Inhibition (%)): 15.1 ± 6.53% | Inhibition (%), single determinations ([2]; 6.25 μM): 31.66% and 31.22% | inhibition at 6.25 µM ([2]; 6.25 μM, read-out: Average of Inhibition (%)): 31.71 ± 0.3% | inhibition at 6.25 µM ([2]; 6.25 μM, read-out: Inhibition (%), single determinations): 32.2% | Inhibition (%), single determinations ([2]; 12.50 μM, 12.5 µM): 50.39% and 54.31% | inhibition at 12.5 µM ([2]; 12.50 μM, read-out: Average of Inhibition (%)): 53.5 ± 1.62% | inhibition at 12.5 µM ([2]; 12.50 μM, read-out: Inhibition (%), single determinations): 55.8% | Inhibition (%), single determinations ([2]; 25.00 μM): 68.71% and 69.37% | inhibition at 25 µM ([2]; 25.00 μM, read-out: Average of Inhibition (%)): 69.3 ± 0.32% | inhibition at 25 µM ([2]; 25.00 μM, read-out: Inhibition (%), single determinations): 69.8% | Tyrosinase Inhibition (%) [2]: 75.92 ± 2.19% | inhibition at 50 µM [2]: 76% | IC50 ([2]; mushroom tyrosinase, L-tyrosine, read-out: IC50): 15.7 ± 0.4 µM | Mode of tyrosinase inhibition ([3]; Lineweaver–Burk analysis, L-tyrosine as substrate): competitive inhibitors | Vmax ([3]; inhibitor 10 μM, L-tyrosine 1.0–8.0 mM): 0.029 mM/min | Vmax ([3]; inhibitor 20 μM, L-tyrosine 1.0–8.0 mM): 0.029 mM/min | Vmax ([3]; inhibitor 40 μM, L-tyrosine 1.0–8.0 mM): 0.029 mM/min | Vmax ([3]; not dependent on inhibitor concentration): 0.029 mM/min | Cellular tyrosinase activity ([4]; 10 μM, α-MSH plus IBMX, kojic acid 20 μM as comparator): greater at 10 μM than kojic acid at 20 μM | Cellular tyrosinase activity ([4]; 20 μM, α-MSH plus IBMX, kojic acid 20 µM as comparator): much higher than that of kojic acid; also recorded: reduced tyrosinase activity to the untreated control levels | Cellular tyrosinase activity ([4]; 5, 10, 20 μM, α-MSH (1 μM) plus IBMX (200 μM)): more strongly than KA; also recorded: decreased significantly and concentration-dependently; also recorded: effectively and dose-dependently | Cytotoxic effect [5]: No significant cytotoxic effect; also recorded: not cytotoxic

SMILES: OCc1cc(O)ccc1-c1ccc(O)cc1O [Compound 2e, 2′-(Hydroxymethyl)-[1,1′-biphenyl]-2,4,4′-triol]
inhibition at 50 µM [2]: < 0%

SMILES: COc1ccc(-c2ccc(O)cc2O)c(CO)c1 [Compound 2f, 2′-(Hydroxymethyl)-4′-methoxy-[1,1′-biphenyl]-2,4-diol]
inhibition at 50 µM [2]: 47.9 ± 12.8%

SMILES: COc1ccc(-c2ccc(OC)cc2CO)c(O)c1 [Compound 2g, 2′-(Hydroxymethyl)-4,4′-dimethoxy-[1,1′-biphenyl]-2-ol]
inhibition at 50 µM [2]: < 0%

SMILES: COc1ccc(-c2c(O)cc(O)cc2O)c(CO)c1 [Compound 2h, 2′-(Hydroxymethyl)-4′-methoxy-[1,1′-biphenyl]-2,4,6-triol]
Tyrosinase Inhibition (%) [2]: 26.30 ± 0.75% | inhibition at 50 µM [2]: 26%
